# Experimental data published in patent publication US5972639A, “Fluorescence-based assays for measuring cell proliferation” (Irori, priority 1997, dated 1999).
# Like-named read-outs stand apart in the source and are kept apart here.
# What was measured:
# [1] = test system: 2008 acid phosphatase; assay: Km of substrate for acid phosphatase, 2008; type: biochemical; details: 2008 human ovarian carcinoma; BBTP 1 mM, 1 h at RT
# Text: (§1) Km of substrate for acid phosphatase for a variety of cells
# [2] = test system: acid phosphatases; assay: Km of BBTP for acid phosphatases; type: biochemical; details: see EXAMPLES
# Text: as §1
# [3] = test system: T47-D acid phosphatase; assay: Km of substrate for acid phosphatase, T47-D; type: biochemical; details: T47-D human breast carcinoma; BBTP 1.5 mM, 1 h at RT
# Text: as §1
# [4] = test system: HL-60 acid phosphatase; assay: Km of substrate for acid phosphatase, HL-60; type: biochemical; details: HL-60 suspension, human promyelocytic leukemia; BBTP 1 mM, 1 h at RT
# Text: as §1
# [5] = test system: CHO-K1 acid phosphatase; assay: acid phosphatase assay of CHO-K1 with AttoPhos/BBTP; type: biochemical, Chinese hamster; details: for Fluorescence: A/2 plate
# Method: (§2) To establish a relation between acid phosphatase activity and cell numbers, cells were seeded at various densities (50-20,000) onto replicate plastic 96-well plates or half area 96-well microtiter plates (Costar) and incubated at 37° C. for 3.5 hours to allow attachment. Cell number was then assessed by measuring intracellular acid phosphatase with three different substrates: p-nitrophenyl phosphate, which has a calorimetric endpoint, 4-methylumbelliferyl phosphate (MUP) and 2'-[2-benzthiazoyl]-6'-hydoxybenzothiazole phosphate bis-[2-amino-2-methyl-13-propanediol] salt (AttoPhos™), which have fluorometric endpoints.
# (§3) Plates were incubated for 1 hour at room temperature and the reaction was terminated with 50 μL of stop solution (240 mM diethanolamine, pH 10). Fluorescence was measured at excitation wavelength of 450 nm and emission wavelength of 580 nm using a fluorimeter (Cytofluor 4000, PerSeptive Biosystems). Nonenzymatic hydrolysis was determined in wells containing no cells and subtracted from the experimental values. Since the background is subtracted, in general, the actual signal to noise ratios at lower cell numbers is better than what presented in the table.
# [6] = test system: Alkaline phosphatase; details: reported in U.S. Pat. No. 5,424,440; read-out: Km of the substrate with alkaline phosphatase; cited from earlier work
# [7] = test system: HUVEC intracellular acid phosphatase; type: biochemical, human
# [8] = test system: Molt-4 acid phosphatase; assay: Km of substrate for acid phosphatase, Molt-4; type: biochemical; details: Molt-4 suspension, human acute lymphoblastic leukemia; BBTP 1 mM, 1 h at RT
# Text: as §1
# [9] = test system: HDMEC intracellular acid phosphatase; assay: acid phosphatase assay of HDMEC with AttoPhos/BBTP; type: biochemical, human; details: for Fluorescence: A/2 plate
# Method: as §2, §3
# [10] = test system: K562 acid phosphatase; assay: Km of substrate for acid phosphatase, K562; type: biochemical; details: K562 suspension, human chronic myelogenous leukemia; BBTP 1 mM, 1 h at RT
# Text: as §1
# [11] = test system: 3T3 cells acid phosphatase; assay: acid phosphatase assay of 3T3 cells with AttoPhos/BBTP; type: biochemical, mouse; details: for Fluorescence: 96-well plate, AttoPhos 500 μM
# Method: as §2
# as §3, with “After washing with D-PBS, 150 μL 0.5 mM AttoPhos™ in 0.1 M Tris-citrate (0.1 M Tris-base, 0.1 M citric acid, pH 6.5 containing 0.25% Triton X-100) was added to each well and placed on an orbital shaker for 5 minutes as described for MUP. Plates” for “Plates”
compound,measurement,setting,value
"O=P(O)(O)Oc1ccc2nc(-c3nc4ccccc4s3)sc2c1 [BBTP, 2'(2-benzothiazoyl)-6'-hydroxy-benzthiazole phosphate]",Km,[1],106 µM
same,Km,[2],~100 µM
same,Km,[3],261 µM
same,Km,[4],108 µM
same,Fluorescence,"[5]; 250 CHO-K1/well, AttoPhos 100 μM",552 ± 26 RFU
same,Fluorescence,"[5]; 250 CHO-K1/well, AttoPhos 250 μM",683 ± 36 RFU
same,Fluorescence,"[5]; 250 CHO-K1/well, AttoPhos 500 μM",721 ± 90 RFU
same,Fluorescence,"[5]; 500 CHO-K1/well, AttoPhos 100 μM",790 ± 70 RFU
same,Fluorescence,"[5]; 500 CHO-K1/well, AttoPhos 250 μM",1008 ± 21 RFU
same,Fluorescence,"[5]; 500 CHO-K1/well, AttoPhos 500 μM",1010 ± 126 RFU
same,Fluorescence,"[5]; 1,000 CHO-K1/well, AttoPhos 100 μM",1031 ± 138 RFU
same,Fluorescence,"[5]; 1,000 CHO-K1/well, AttoPhos 250 μM",1296 ± 64 RFU
same,Fluorescence,"[5]; 1,000 CHO-K1/well, AttoPhos 500 μM",1400 ± 47 RFU
same,Fluorescence,"[5]; 2,000 CHO-K1/well, AttoPhos 100 μM",2179 ± 156 RFU
same,Fluorescence,"[5]; 2,000 CHO-K1/well, AttoPhos 250 μM",2628 ± 148 RFU
same,Fluorescence,"[5]; 2,000 CHO-K1/well, AttoPhos 500 μM",2936 ± 382 RFU
same,Fluorescence,"[5]; 4,000 CHO-K1/well, AttoPhos 100 μM",3905 ± 234 RFU
same,Fluorescence,"[5]; 4,000 CHO-K1/well, AttoPhos 250 μM",4162 ± 122 RFU
same,Fluorescence,"[5]; 4,000 CHO-K1/well, AttoPhos 500 μM",4832 ± 357 RFU
same,Fluorescence,"[5]; 8,000 CHO-K1/well, AttoPhos 100 μM",7785 ± 684 RFU
same,Fluorescence,"[5]; 8,000 CHO-K1/well, AttoPhos 250 μM",8356 ± 237 RFU
same,Fluorescence,"[5]; 8,000 CHO-K1/well, AttoPhos 500 μM",9138 ± 440 RFU
same,Fluorescence,"[5]; 12,000 CHO-K1/well, AttoPhos 100 μM",12481 ± 462 RFU
same,Fluorescence,"[5]; 12,000 CHO-K1/well, AttoPhos 250 μM",12959 ± 124 RFU
same,Fluorescence,"[5]; 12,000 CHO-K1/well, AttoPhos 500 μM",12198 ± 83 RFU
same,Km,"[5]; CHO-K1 Chinese hamster ovary, BBTP 0.5 mM, 1 h at RT",172 µM
same,Km,[6],~2000 µM
same,Fluorescence,"[7]; 625 HUVEC/well, 96-well plate, AttoPhos 250 μM",1695 ± 65 RFU
same,Fluorescence,"[7]; 625 HUVEC/well, 96-well plate, AttoPhos 500 μM",1561 ± 39 RFU
same,Fluorescence,"[7]; 625 HUVEC/well, half area 96-well (A/2) plate, AttoPhos 250 μM",1867 ± 68 RFU
same,Fluorescence,"[7]; 625 HUVEC/well, half area 96-well (A/2) plate, AttoPhos 500 μM",2040 ± 55 RFU
same,Fluorescence,"[7]; 1,250 HUVEC/well, 96-well plate, AttoPhos 250 μM",2853 ± 180 RFU
same,Fluorescence,"[7]; 1,250 HUVEC/well, 96-well plate, AttoPhos 500 μM",2737 ± 106 RFU
same,Fluorescence,"[7]; 1,250 HUVEC/well, half area 96-well (A/2) plate, AttoPhos 250 μM",3438 ± 132 RFU
same,Fluorescence,"[7]; 1,250 HUVEC/well, half area 96-well (A/2) plate, AttoPhos 500 μM",3757 ± 132 RFU
same,Fluorescence,"[7]; 2,500 HUVEC/well, 96-well plate, AttoPhos 250 μM",5019 ± 188 RFU
same,Fluorescence,"[7]; 2,500 HUVEC/well, 96-well plate, AttoPhos 500 μM",5186 ± 125 RFU
same,Fluorescence,"[7]; 2,500 HUVEC/well, half area 96-well (A/2) plate, AttoPhos 250 μM",6664 ± 128 RFU
same,Fluorescence,"[7]; 2,500 HUVEC/well, half area 96-well (A/2) plate, AttoPhos 500 μM",7046 ± 240 RFU
same,Fluorescence,"[7]; 5,000 HUVEC/well, 96-well plate, AttoPhos 250 μM",10578 ± 119 RFU
same,Fluorescence,"[7]; 5,000 HUVEC/well, 96-well plate, AttoPhos 500 μM",10406 ± 498 RFU
same,Fluorescence,"[7]; 5,000 HUVEC/well, half area 96-well (A/2) plate, AttoPhos 250 μM",12807 ± 399 RFU
same,Fluorescence,"[7]; 5,000 HUVEC/well, half area 96-well (A/2) plate, AttoPhos 500 μM",14586 ± 498 RFU
same,Fluorescence,"[7]; 10,000 HUVEC/well, 96-well plate, AttoPhos 250 μM",20670 ± 967 RFU
same,Fluorescence,"[7]; 10,000 HUVEC/well, 96-well plate, AttoPhos 500 μM",21198 ± 240 RFU
same,Fluorescence,"[7]; 10,000 HUVEC/well, half area 96-well (A/2) plate, AttoPhos 250 μM",25684 ± 1488 RFU
same,Fluorescence,"[7]; 10,000 HUVEC/well, half area 96-well (A/2) plate, AttoPhos 500 μM",28302 ± 448 RFU
same,Fluorescence,"[7]; 20,000 HUVEC/well, 96-well plate, AttoPhos 250 μM",37889 ± 501 RFU
same,Fluorescence,"[7]; 20,000 HUVEC/well, 96-well plate, AttoPhos 500 μM",38528 ± 1540 RFU
same,Fluorescence,"[7]; 20,000 HUVEC/well, half area 96-well (A/2) plate, AttoPhos 250 μM",46409 ± 1009 RFU
same,Fluorescence,"[7]; 20,000 HUVEC/well, half area 96-well (A/2) plate, AttoPhos 500 μM",49706 ± 790 RFU
same,Km,"[7]; HUVEC, BBTP 0.5 mM, 1 h at RT",88 µM
same,Km,[8],130 µM
same,Fluorescence,"[9]; 50 HDMEC/well, AttoPhos 100 μM",829 ± 26 RFU
same,Fluorescence,"[9]; 50 HDMEC/well, AttoPhos 250 μM",1014 ± 80 RFU
same,Fluorescence,"[9]; 50 HDMEC/well, AttoPhos 500 μM",1496 ± 4.6 RFU
same,Fluorescence,"[9]; 100 HDMEC/well, AttoPhos 100 μM",1609 ± 157 RFU
same,Fluorescence,"[9]; 100 HDMEC/well, AttoPhos 250 μM",1545 ± 253 RFU
same,Fluorescence,"[9]; 100 HDMEC/well, AttoPhos 500 μM",2032 ± 97 RFU
same,Fluorescence,"[9]; 250 HDMEC/well, AttoPhos 100 μM",2347 ± 209 RFU
same,Fluorescence,"[9]; 250 HDMEC/well, AttoPhos 250 μM",2383 ± 24 RFU
same,Fluorescence,"[9]; 250 HDMEC/well, AttoPhos 500 μM",3686 ± 270 RFU
same,Fluorescence,"[9]; 500 HDMEC/well, AttoPhos 100 μM",3682 ± 263 RFU
same,Fluorescence,"[9]; 500 HDMEC/well, AttoPhos 250 μM",3998 ± 313 RFU
same,Fluorescence,"[9]; 500 HDMEC/well, AttoPhos 500 μM",6404 ± 665 RFU
same,Fluorescence,"[9]; 1,000 HDMEC/well, AttoPhos 100 μM",6653 ± 483 RFU
same,Fluorescence,"[9]; 1,000 HDMEC/well, AttoPhos 250 μM",7594 ± 411 RFU
same,Fluorescence,"[9]; 1,000 HDMEC/well, AttoPhos 500 μM",9822 ± 930 RFU
same,Fluorescence,"[9]; 2,500 HDMEC/well, AttoPhos 100 μM",15566 ± 167 RFU
same,Fluorescence,"[9]; 2,500 HDMEC/well, AttoPhos 250 μM",13382 ± 310 RFU
same,Fluorescence,"[9]; 2,500 HDMEC/well, AttoPhos 500 μM",20580 ± 436 RFU
same,Fluorescence,"[9]; 5,000 HDMEC/well, AttoPhos 100 μM",28018 ± 817 RFU
same,Fluorescence,"[9]; 5,000 HDMEC/well, AttoPhos 250 μM",25468 ± 843 RFU
same,Fluorescence,"[9]; 5,000 HDMEC/well, AttoPhos 500 μM",34112 ± 1797 RFU
same,Fluorescence,"[9]; 10,000 HDMEC/well, AttoPhos 100 μM",35787 ± 1325 RFU
same,Fluorescence,"[9]; 10,000 HDMEC/well, AttoPhos 250 μM",40725 ± 1850 RFU
same,Fluorescence,"[9]; 10,000 HDMEC/well, AttoPhos 500 μM",54430 ± 133 RFU
same,Km,"[9]; HDMEC, BBTP 1.5 mM, 1 h at RT, read-out: Km",80 µM
same,Km,"[9]; human dermal microvascular endothelial cells, read-out: apparent Km",~100 µM
same,Km,[10],82 µM
same,Fluorescence,[11]; 250 3T3 cells/well,1866 ± 100 RFU
same,Fluorescence,[11]; 500 3T3 cells/well,3194 ± 172 RFU
same,Fluorescence,"[11]; 1,000 3T3 cells/well",6149 ± 176 RFU
same,Fluorescence,"[11]; 2,000 3T3 cells/well",10115 ± 840 RFU
same,Fluorescence,"[11]; 4,000 3T3 cells/well",21314 ± 1558 RFU
same,Fluorescence,"[11]; 8,000 3T3 cells/well",44831 ± 1793 RFU
same,Fluorescence,"[11]; 10,000 3T3 cells/well",49860 ± 556 RFU
same,Km,"[11]; NIH 3T3 mouse embryonic fibroblasts, BBTP 0.5 mM, 1, at RT",87 µM
